Assay results as given in patent publication US9187467B2, “2-phenyl benzothiazole linked imidazole compounds as potential anticancer agents and process for the preparation thereof” (Council of Scientific and Industrial Research, priority 2012, dated 2015).

How the values were obtained:
A549/ATCC = test: SRB anticancer assay, non-small lung; format: cell-based, human; set-up: Log10GI50: unit not given here
NCI-H522 = test: SRB anticancer assay, non-small lung; format: cell-based, human; set-up: Log10GI50: unit not given here
HT29 = test: SRB anticancer assay, colon; format: cell-based, human; conditions: Homo sapiens, HT-29; HT29, 48 h
SF-295 = test: SRB anticancer assay, CNS; format: cell-based, human; set-up: Log10GI50: unit not given here
SNB-75 = test: SRB anticancer assay, CNS; format: cell-based, human; set-up: Log10GI50: unit not given here
786-0 = test: SRB anticancer assay, renal; format: cell-based, human
TK-10 = test: SRB anticancer assay, renal; format: cell-based, human; conditions: Homo sapiens, TK-10, 48 h
PC-3 = test: SRB anticancer assay, prostate; format: cell-based, human; set-up: Log10GI50: unit not given here
DU-145 = test: SRB anticancer assay, prostate; format: cell-based, human; set-up: Log10GI50: unit not given here
MCF7 = test: SRB anticancer assay, breast; format: cell-based, human; conditions: Homo sapiens, MCF7, 48 h
HS 578T = test: SRB anticancer assay, breast; format: cell-based, human; set-up: Log10GI50: unit not given here
LOX IMVI = test: SRB anticancer assay, melanoma; format: cell-based, human; set-up: Log10GI50: unit not given here
MALME-3M = test: SRB anticancer assay, melanoma; format: cell-based, human; set-up: Log10GI50: unit not given here
SK-MEL-2 = test: SRB anticancer assay, melanoma; format: cell-based, human
UACC-62 = test: SRB anticancer assay, melanoma; format: cell-based, human
Breast cancer cell lines = test: SRB anticancer assay, panel result; format: cell-based, human
Description: (§1) The compounds were evaluated for anticancer activity against sixty human cancer cells derived from nine cancer types (leukemia cell line, non-small-cell lung cell line, colon cell line, CNS cell line, melanoma cell line, ovarian cell line, prostate cell line, renal cancer cell line and breast cancer cell line) as shown in Table 1. For each compound, dose response curves for each cell line were measured at a minimum of five concentrations at 10 fold dilutions. A protocol of 48 h continuous drug exposure was used and a sulforhodamine B (SRB) protein assay was used to estimate cell viability or growth.

CNS cancer cell lines = test: SRB anticancer assay, panel result; format: cell-based, human
Description: as §1

Colon cancer cell lines = test: SRB anticancer assay, panel result; format: cell-based, human
Description: as §1

[1] = test system: Leukemia cancer cell lines; test: SRB anticancer assay, panel result; format: cell-based, human
Description: as §1

[2] = test system: Melanoma cancer cell lines; test: SRB anticancer assay, panel result; format: cell-based, human
Description: as §1

[3] = test system: Non-small cell lung cancer cell lines; test: SRB anticancer assay, panel result; format: cell-based, human
Description: as §1

[4] = test system: Ovarian cancer cell lines; test: SRB anticancer assay, panel result; format: cell-based, human
Description: as §1

[5] = test system: Prostate cancer cell lines; test: SRB anticancer assay, panel result; format: cell-based, human
Description: as §1

Renal cancer cell lines = test: SRB anticancer assay, panel result; format: cell-based, human
Description: as §1

K562 (Leukemia) cells = test: Cell cycle distribution by flow cytometry; format: cell-based
Description: In order to investigate the mechanism underlying the anti-proliferative effect of the compounds the cell cycle distribution was analyzed in K562 (Leukemia) and MCF-7 (Breast carcinoma) cell lines by flow cytometry. Compounds CA-4, 21a, 21d, 4c, 6d, 6e, 6f, 7d, 7h and 7j have shown 1.72%, 14%, 12%, 14%, 12%, 14%, 14%, 16%, 16% &12% in K562 cells and 49.63%, 21%, 20%, 18%, 21%, 21%, 21%, 24%, 23% and 23% in MCF-7 cell line respectively. […] Thus compound 7d was considered for further studies (FIG. 1).

COc1ccc(-c2cncn2-c2ccc(-c3nc4cc(OC)c(OC)c(OC)c4s3)cc2)cc1N [Compound 7j, 2-Methoxy-5-(1-(4-(5,6,7-trimethoxybenzo[d]thiazol-2-yl)phenyl)-1H-imidazol-5-yl)benzeneamine] was tested. Which GI50 (A549/ATCC; Homo sapiens, 48 h) did it give?
Its GI50 is 5.77 µM.

And the Log10GI50 (A549/ATCC; present compounds)?
Its Log10GI50 is −5.24.

What about the GI50 (NCI-H522; Homo sapiens, NCI-H522, 48 h) of the same molecule?
The GI50 was 3.37 µM.

What about the Log10GI50 (NCI-H522; NCI-H522, present compounds) of the same molecule?
The Log10GI50 was −5.47.

What about the GI50 (HT29) of the same molecule?
The GI50 was 3.87 µM.

And the GI50 (SF-295; Homo sapiens, SF-295, 48 h)?
Its GI50 is 4.44 µM.

What about the Log10GI50 (SF-295; SF-295, present compounds) of the same molecule?
Its Log10GI50 is −5.35.

And the GI50 (SNB-75; Homo sapiens, SNB-75, 48 h)?
The GI50 was 52.3 µM.

What about the Log10GI50 (SNB-75; SNB-75, present compounds) of the same molecule?
The Log10GI50 was −4.28.

And the Log10GI50 (786-0; 786-0, present compounds)?
Its Log10GI50 is −5.24 log10 M.

And the GI50 (786-0; Homo sapiens, 786-0, 48 h)?
The GI50 was 5.73 µM.

And the GI50 (TK-10)?
Its GI50 is 4.16 µM.

And the GI50 (PC-3; Homo sapiens, PC-3, 48 h)?
The GI50 was 2.59 µM.

And the Log10GI50 (PC-3; PC-3, present compounds)?
The Log10GI50 was −5.59.

And the Log10GI50 (DU-145; DU-145, present compounds)?
The Log10GI50 was −5.20.

And the GI50 (DU-145; Homo sapiens, DU-145, 48 h)?
The GI50 was 6.38 µM.

And the GI50 (MCF7)?
Its GI50 is 4.07 µM.

And the GI50 (HS 578T; Homo sapiens, 48 h)?
The GI50 was 6.21 µM.

What about the Log10GI50 (HS 578T; present compounds) of the same molecule?
Its Log10GI50 is −4.55.

And the GI50 (LOX IMVI; Homo sapiens, 48 h)?
Its GI50 is 4.75 µM.

And the Log10GI50 (LOX IMVI; present compounds)?
The Log10GI50 was −5.32.

And the GI50 (MALME-3M; Homo sapiens, Malme-3M, 48 h)?
The GI50 was 2.48 µM.

And the Log10GI50 (MALME-3M; MALME-3M, present compounds)?
Its Log10GI50 is −5.61.

And the GI50 (SK-MEL-2; Homo sapiens, SK-MEL-2, 48 h)?
Its GI50 is 6.04 µM.

What about the Log10GI50 (SK-MEL-2; SK-MEL-2, present compounds) of the same molecule?
Its Log10GI50 is −5.22 M.

And the GI50 (UACC-62; Homo sapiens, UACC-62, 48 h)?
The GI50 was over 100 µM.

What about the Log10GI50 (UACC-62; UACC-62, present compounds) of the same molecule?
Its Log10GI50 is −5.04 log10 M.

What about the “mean graph midpoint value (MG_MID) of Log10 GI50” value (Breast cancer cell lines; Breast panel) of the same molecule?
Its value is −4.96 mol/L.

What about the “mean graph midpoint value (MG_MID) of log10 TGI” value (Breast cancer cell lines; Breast panel, total inhibition of net cell growth) of the same molecule?
Its value is over −4.0.

What about the CC50 (Breast cancer cell lines; Homo sapiens, Breast panel, 50% net cell death, read-out: mean graph midpoint value (MG_MID) of Log10 LC50 (converted)) of the same molecule?
Its CC50 is over 100 µM.

What about the GI50 (Breast cancer cell lines; Homo sapiens, six breast cancer cell lines, exposure at least 48 h, read-out: GI50, range over the panel) of the same molecule?
The GI50 was 3.02 to 28.3 µM.

And the “mean graph midpoint value (MG_MID) of Log10 GI50” value (CNS cancer cell lines; CNS panel)?
Its value is −4.53 mol/L.

What about the “mean graph midpoint value (MG_MID) of log10 TGI” value (CNS cancer cell lines; CNS panel, total inhibition of net cell growth) of the same molecule?
The value was over −4.0.

What about the CC50 (CNS cancer cell lines; Homo sapiens, CNS panel, 50% net cell death, read-out: mean graph midpoint value (MG_MID) of Log10 LC50 (converted)) of the same molecule?
The CC50 was over 100 µM.

And the GI50 (CNS cancer cell lines; Homo sapiens, six CNS cancer cell lines, exposure at least 48 h, read-out: GI50, range over the panel)?
The GI50 was 4.44 to 52.3 µM.

And the “mean graph midpoint value (MG_MID) of Log10 GI50” value (Colon cancer cell lines; Colon panel)?
Its value is −5.40 log10(mol/L).

What about the “mean graph midpoint value (MG_MID) of log10 TGI” value (Colon cancer cell lines; Colon panel, total inhibition of net cell growth) of the same molecule?
Its value is −4.11.

And the LC50 (Colon cancer cell lines; Homo sapiens, Colon panel, 50% net cell death, read-out: mean graph midpoint value (MG_MID) of Log10 LC50 (converted))?
The LC50 was over 100 µM.

And the GI50 (Colon cancer cell lines; Homo sapiens, seven colon cancer cell lines, exposure at least 48 h, read-out: GI50, range over the panel)?
The GI50 was 2.94 to 6.21 µM.

And the LC50 ([1]; Homo sapiens, Leukemia panel, 50% net cell death, read-out: mean graph midpoint value (MG_MID) of Log10 LC50 (converted))?
The LC50 was over 100 µM.

What about the GI50 ([1]; Homo sapiens, six leukemia cancer cell lines, exposure at least 48 h, read-out: GI50, range over the panel) of the same molecule?
Its GI50 is 2.2 to 4 µM.

And the “mean graph midpoint value (MG_MID) of Log10 GI50” value ([1]; Leukemia panel)?
The value was −5.49 log10(mol/L).

And the “mean graph midpoint value (MG_MID) of log10 TGI” value ([1]; Leukemia panel, total inhibition of net cell growth)?
Its value is −4.20.

And the LC50 ([2]; Homo sapiens, Melanoma panel, 50% net cell death, read-out: mean graph midpoint value (MG_MID) of Log10 LC50 (converted))?
Its LC50 is 81.3 µM.

And the GI50 ([2]; Homo sapiens, nine melanoma cancer cell lines, exposure at least 48 h, read-out: GI50, range over the panel)?
Its GI50 is 1.73 to 13.7 µM.

What about the “mean graph midpoint value (MG_MID) of Log10 GI50” value ([2]; Melanoma panel) of the same molecule?
Its value is −5.17 log10(mol/L).

And the “mean graph midpoint value (MG_MID) of log10 TGI” value ([2]; Melanoma panel, total inhibition of net cell growth)?
The value was −4.26.

And the LC50 ([3]; Homo sapiens, Non-small cell lung panel, 50% net cell death, read-out: mean graph midpoint value (MG_MID) of Log10 LC50 (converted))?
The LC50 was over 100 µM.

And the GI50 ([3]; Homo sapiens, nine Non-small cell lung cancer cell lines, exposure at least 48 h, read-out: GI50, range over the panel)?
Its GI50 is 3.37 to 25.7 µM.

And the “mean graph midpoint value (MG_MID) of Log10 GI50” value ([3]; Non-small cell lung panel)?
The value was −5.18 log10(M).

And the “mean graph midpoint value (MG_MID) of log10 TGI” value ([3]; Non-small cell lung panel, total inhibition of net cell growth)?
The value was −4.11.

And the LC50 ([4]; Homo sapiens, Ovarian panel, 50% net cell death, read-out: mean graph midpoint value (MG_MID) of Log10 LC50 (converted))?
The LC50 was over 100 µM.

What about the GI50 ([4]; Homo sapiens, seven ovarian cancer cell lines, exposure at least 48 h, read-out: GI50, range over the panel) of the same molecule?
Its GI50 is 3.12 to 6.29 µM.

And the “mean graph midpoint value (MG_MID) of Log10 GI50” value ([4]; Ovarian panel)?
The value was −4.93 mol/L.

And the “mean graph midpoint value (MG_MID) of log10 TGI” value ([4]; Ovarian panel, total inhibition of net cell growth)?
Its value is over −4.0.

And the LC50 ([5]; Homo sapiens, Prostate panel, 50% net cell death, read-out: mean graph midpoint value (MG_MID) of Log10 LC50 (converted))?
The LC50 was over 100 µM.

And the GI50 ([5]; Homo sapiens, two prostate cancer cell lines (PC-3, DU-145), exposure at least 48 h, read-out: GI50, range over the panel)?
Its GI50 is 2.59 to 6.38 µM.

And the “mean graph midpoint value (MG_MID) of Log10 GI50” value ([5]; Prostate panel)?
The value was −5.39 mol/L.

And the “mean graph midpoint value (MG_MID) of log10 TGI” value ([5]; Prostate panel, total inhibition of net cell growth)?
Its value is over −4.0.

And the CC50 (Renal cancer cell lines; Homo sapiens, Renal panel, 50% net cell death, read-out: mean graph midpoint value (MG_MID) of Log10 LC50 (converted))?
The CC50 was over 100 µM.

And the GI50 (Renal cancer cell lines; Homo sapiens, eight renal cancer cell lines, exposure at least 48 h, read-out: GI50, range over the panel)?
Its GI50 is 1.99 to 9.44 µM.

And the “mean graph midpoint value (MG_MID) of Log10 GI50” value (Renal cancer cell lines; Renal panel)?
Its value is −5.31 log10(mol/L).

What about the “mean graph midpoint value (MG_MID) of log10 TGI” value (Renal cancer cell lines; Renal panel, total inhibition of net cell growth) of the same molecule?
The value was −4.14.

What about the “cells in G2/M phase” value (K562 (Leukemia) cells) of the same molecule?
The value was 12%.
